Source: patent publication USRE48267E1, “Variants of C-type natriuretic peptide” (priority 2009, dated 2020)
Read-outs that look alike come from different tables or passages of the source. Where a SMILES comes first, the peptide text is derived from it. Bridges are numbered along the chain shown (N, C = ends). The star is where a group is joined. Heptanoyl = CCCCCCC(=O)*

Experiments:
NPR-B = target: T1, NPR-B (Mus musculus, UniProt Q6VVW5); test: stimulation of cGMP production in NIH3T3 cells; assay type: cell-based, murine; settings: for cGMP Response rel. to 1 uM CNP22, 10 nM: NIH3T3 cells exposed to 10 nM peptide; for cGMP Response rel. to 1 uM CNP22, 10 nM / cGMP Response rel. to 1 uM CNP22, 1 uM: normalized to cell number and cGMP production in the presence of 1 uM wtCNP22; for cGMP Response rel. to 1 uM CNP22, 1 uM: NIH3T3 cells exposed to 1 uM peptide
T1 construct: Murine NIH3T3 cells express endogenously the CNP signaling receptor, NPR-B; endogenous in cells; host or cells: NIH3T3
T1 sequence (Q6VVW5 17-1047): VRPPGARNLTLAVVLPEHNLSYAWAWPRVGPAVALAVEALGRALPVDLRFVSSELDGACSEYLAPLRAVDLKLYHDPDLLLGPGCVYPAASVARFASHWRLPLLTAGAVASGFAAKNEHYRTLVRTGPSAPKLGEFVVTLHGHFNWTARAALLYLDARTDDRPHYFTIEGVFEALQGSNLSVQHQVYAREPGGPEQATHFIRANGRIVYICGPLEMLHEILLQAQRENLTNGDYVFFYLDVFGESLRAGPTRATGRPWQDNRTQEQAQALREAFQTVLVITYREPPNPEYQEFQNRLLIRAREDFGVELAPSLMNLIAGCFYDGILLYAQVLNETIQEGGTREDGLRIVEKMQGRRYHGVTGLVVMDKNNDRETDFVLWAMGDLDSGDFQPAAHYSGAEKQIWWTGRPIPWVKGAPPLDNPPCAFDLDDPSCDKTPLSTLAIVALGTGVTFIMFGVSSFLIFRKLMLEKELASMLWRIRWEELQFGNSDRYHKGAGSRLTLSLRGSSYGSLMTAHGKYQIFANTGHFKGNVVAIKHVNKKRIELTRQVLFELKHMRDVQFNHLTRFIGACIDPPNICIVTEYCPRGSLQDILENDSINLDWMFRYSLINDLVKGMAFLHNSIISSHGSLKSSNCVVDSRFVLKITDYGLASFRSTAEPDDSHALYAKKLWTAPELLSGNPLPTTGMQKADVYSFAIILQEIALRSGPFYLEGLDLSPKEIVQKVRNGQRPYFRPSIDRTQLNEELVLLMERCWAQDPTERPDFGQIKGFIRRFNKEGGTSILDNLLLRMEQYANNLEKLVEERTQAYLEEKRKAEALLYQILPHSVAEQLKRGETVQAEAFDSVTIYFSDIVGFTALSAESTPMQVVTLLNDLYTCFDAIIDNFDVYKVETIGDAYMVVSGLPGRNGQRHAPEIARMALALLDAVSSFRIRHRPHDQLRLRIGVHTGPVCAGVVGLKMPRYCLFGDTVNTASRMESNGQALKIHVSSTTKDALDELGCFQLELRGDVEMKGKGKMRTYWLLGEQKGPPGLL
Experimental: To determine the functional activity of CNP variants, the production of cGMP was measured in NIH3T3 cells exposed to the CNP variants. Murine NIH3T3 cells express endogenously the CNP signaling receptor, NPR-B, which shares 98% protein sequence identity with human NPR-B. NIH3T3 cells were cultured in high glucose Dulbecco's Modified Eagle Medium supplemented with 10% fetal calf serum and antibiotics at 37° C. with 5% CO2). Twenty four to 48 hours prior to signaling, cells were passaged to 12-well plates with a density of 2-5×10^5 cells per well at the time of the assay. CNP variants were resuspended in 1 mM HCl to a stock concentration of 1 mg/mL (455 uM for wtCNP22) and subsequently diluted to a 30 uM working stock solution with phosphate-buffered saline (PBS). Ten-fold serial dilutions were prepared in phosphate-buffered saline. Culture medium was removed from the cells and replaced with 0.4 mL PBS/Dulbecco's modified Eagle medium (50/50, v/v) containing 0.75 mM isobutylmethylxanine. Plates were incubated at 37° C., 5% CO2 for 15 minutes before addition of 0.2 mL CNP variant in PBS and continued incubation at 37° C. for 15 minutes. Reactions were stopped by the addition of 0.2 mL lysis buffer supplied with the CatchPoint cGMP assay kit (Molecular Devices), and cGMP production was determined with the CatchPoint cGMP Assay (Molecular Devices). All stimulation experiments were performed in duplicate.
Tables 1-4 summarize the ability of CNP variants having backbone or side chain modifications, amino acid substitutions, N-terminal amino acid extensions, and/or N-terminal PEGylation, respectively, to stimulate cGMP production in NIH3T3 cells. In all four tables, the values for cGMP production in NIH3T3 cells exposed to 10 nM or 1 uM CNP variant are normalized to cell number and cGMP production in the presence of 1 uM wtCNP22.

Recombinant human NEP = Recombinant human NEP (Homo sapiens, UniProt P08473); test: in vitro NEP cleavage assay (disappearance of non-cleaved CNP variant); settings: for NEP Cleavage (t1/2, min): 100 uM peptide, 1 ug/mL NEP, 0.1 M Tris pH 7, 37° C., adjusted t1/2, CNP22 normalized to 80 min
Sequence of Recombinant human NEP (P08473 whole entry): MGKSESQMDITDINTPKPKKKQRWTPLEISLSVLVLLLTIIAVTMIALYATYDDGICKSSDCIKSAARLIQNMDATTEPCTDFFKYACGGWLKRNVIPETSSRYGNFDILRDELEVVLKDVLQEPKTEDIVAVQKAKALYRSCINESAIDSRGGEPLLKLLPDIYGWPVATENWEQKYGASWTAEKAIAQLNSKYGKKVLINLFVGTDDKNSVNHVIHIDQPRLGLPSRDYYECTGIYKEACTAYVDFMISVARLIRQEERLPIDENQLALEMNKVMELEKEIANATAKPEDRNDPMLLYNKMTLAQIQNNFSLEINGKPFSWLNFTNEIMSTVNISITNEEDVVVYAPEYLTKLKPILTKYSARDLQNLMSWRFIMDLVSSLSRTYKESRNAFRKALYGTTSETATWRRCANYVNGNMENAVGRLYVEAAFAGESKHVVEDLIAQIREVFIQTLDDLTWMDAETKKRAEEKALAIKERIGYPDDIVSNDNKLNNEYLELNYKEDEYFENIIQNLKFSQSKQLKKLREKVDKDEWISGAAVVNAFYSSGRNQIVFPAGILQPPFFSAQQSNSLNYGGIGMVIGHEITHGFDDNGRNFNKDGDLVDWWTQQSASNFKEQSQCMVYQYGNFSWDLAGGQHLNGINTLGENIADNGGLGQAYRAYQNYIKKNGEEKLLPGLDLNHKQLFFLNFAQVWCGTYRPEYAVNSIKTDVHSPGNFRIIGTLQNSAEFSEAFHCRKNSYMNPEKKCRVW
Experimental: To determine the effects of amino acid substitutions, amino acid extensions, backbone modifications, side chain modifications and PEGylation on the susceptibility of CNP variants to neutral endopeptidase (NEP) cleavage, peptide cleavage assays were carried out using an in vitro assay that monitored disappearance of the non-cleaved CNP variant.
Recombinant human NEP (1 ug/mL final concentration) was added to 100 uM CNP variant diluted in 0.1 M Tris, pH 7. The reaction mixture was incubated at 37° C. for various periods of time, and the reaction was quenched with EDTA (10 mM final) followed by heat denaturation. The reaction mixture was reduced and then the reaction products were analyzed using HPLC and mass spectroscopy. The half-life of the CNP variant was calculated based on the disappearance of intact CNP variant over time.

Row | Structure (SMILES) | cGMP Response rel. to 1 uM CNP22, 10 nM (NPR-B) | cGMP Response rel. to 1 uM CNP22, 1 uM (NPR-B) | resistance to NEP cleavage (in words) (Recombinant human NEP) | NEP Cleavage (t1/2, min) (Recombinant human NEP) | resistance to cleavage at the Cys6-Phe7 bond relative to wtCNP22 (Recombinant human NEP) | half-life compared to those for Analogs A, B, F and H (Recombinant human NEP; human) | half-life in comparison to wtCNP22 (Recombinant human NEP; human) | NPR-B stimulation activity / cGMP production compared with wtCNP22 (in words) (NPR-B; NIH3T3 cells) | resistance to NEP cleavage (in words) (Recombinant human NEP; in vitro NEP assay, assay period 160 minutes)
1 | CC[C@H](C)[C@@H]1NC(=O)[C@H](CCCNC(=N)N)NC(=O)[C@H](CC(=O)O)NC(=O)[C@H](CC(C)C)NC(=O)[C@H](CCCCN)NC(=O)[C@H](CC(C)C)NC(=O)CNC(=O)[C@H](Cc2ccccc2)NC(=O)[C@@H](NC(=O)CNC(=O)[C@H](CCCNC(=N)N)NC(=O)[C@H](CO)NC(=O)[C@H](CC(C)C)NC(=O)CN)CSSC[C@@H](C(=O)O)NC(=O)CNC(=O)[C@H](CC(C)C)NC(=O)CNC(=O)[C@H](CO)NC(=O)[C@H](CCSC)NC(=O)[C@H](CO)NC(=O)[C@H](CO)NC1=O [Analog BK, CNP22, K4R, G15S] (H-GLSRGCFGLKLDRISSMSGLGC-OH; disulfide 6-22; N-terminus and C-terminus assumed) | 13 ± 1 | 71 ± 11 | greatest resistance to NEP cleavage | ≥160 min |  |  |  |  | 
2 | CC[C@H](C)[C@@H]1NC(=O)[C@H](CCCNC(=N)N)NC(=O)[C@H](CC(=O)O)NC(=O)[C@H](CC(C)C)NC(=O)[C@H](CCCCN)NC(=O)[C@H](CC(C)C)NC(=O)CNC(=O)[C@H](Cc2cccc(Cl)c2)NC(=O)[C@@H](NC(=O)CNC(=O)[C@H](CCCCN)NC(=O)[C@H](CO)NC(=O)[C@H](CC(C)C)NC(=O)CN)CSSC[C@@H](C(=O)O)NC(=O)CNC(=O)[C@H](CC(C)C)NC(=O)CNC(=O)[C@H](CO)NC(=O)[C@H](CCSC)NC(=O)[C@H](CO)NC(=O)CNC1=O [Analog G] | 17 | 93 |  | 135 min | resistance or improved resistance | 1.5-2.5 fold | about 1.5 times |  | 
3 | CC[C@H](C)[C@@H]1NC(=O)[C@H](CCCNC(=N)N)NC(=O)[C@H](CC(=O)O)NC(=O)[C@H](CC(C)C)N(C)C(=O)[C@H](CCCCN)NC(=O)[C@H](CC(C)C)N(C)C(=O)CNC(=O)[C@H](Cc2ccccc2)NC(=O)[C@@H](NC(=O)CNC(=O)[C@H](CCCCN)NC(=O)[C@H](CO)NC(=O)[C@H](CC(C)C)NC(=O)CN)CSSC[C@@H](C(=O)O)NC(=O)CNC(=O)[C@H](CC(C)C)N(C)C(=O)CNC(=O)[C@H](CO)NC(=O)[C@H](CCSC)NC(=O)[C@H](CO)NC(=O)CNC1=O [Analog L, CNP22, N-methyl-L9, N-methyl-L11, N-methyl-L20] | 18 | 10 | substantially shorter half-life |  |  |  |  |  | 
4 | CC[C@H](C)[C@@H]1NC(=O)[C@H](CCCNC(=N)N)NC(=O)[C@H](CC(=O)O)NC(=O)[C@H](CC(C)C)NC(=O)[C@H](CCCCN)NC(=O)[C@H](CC(C)C)N(C)C(=O)CNC(=O)[C@H](Cc2ccccc2)NC(=O)[C@@H](NC(=O)CNC(=O)[C@H](CCCCN)NC(=O)[C@H](CO)NC(=O)[C@H](CC(C)C)NC(=O)CN)CSSC[C@@H](C(=O)O)NC(=O)CNC(=O)[C@H](CC(C)C)N(C)C(=O)CNC(=O)[C@H](CO)NC(=O)[C@H](CCSC)NC(=O)[C@H](CO)NC(=O)CNC1=O [Analog K, CNP22, N-methyl-L9, N-methyl-L20] | 1 | 1 |  | 80 min |  |  |  |  | 
5 | CCCCCCC(=O)N[C@@H](CCC(=O)O)C(=O)N[C@@H](CC(C)C)C(=O)N[C@@H](CO)C(=O)N[C@@H](CCCCN)C(=O)NCC(=O)N[C@H]1CSSC[C@@H](C(=O)O)NC(=O)CNC(=O)[C@H](CC(C)C)NC(=O)CNC(=O)[C@H](CO)NC(=O)[C@H](CCSC)NC(=O)[C@H](CO)NC(=O)CNC(=O)[C@H]([C@@H](C)CC)NC(=O)[C@H](CCCNC(=N)N)NC(=O)[C@H](CC(=O)O)NC(=O)[C@H](CC(C)C)NC(=O)[C@H](CCCCN)NC(=O)[C@H](CC(C)C)NC(=O)CNC(=O)[C@H](Cc2ccccc2)NC1=O [Analog BB, Heptanoic acid (N-term.)-CNP22, G1E] (Heptanoyl-ELSKGCFGLKLDRIGSMSGLGC-OH; disulfide 6-22) | 32 ± 4 | 84 ± 19 |  | 45 to 65 min |  |  |  | comparable NPR-B stimulation activity as wtCNP22 | 
6 | CC[C@H](C)[C@@H]1NC(=O)[C@H](CCCNC(=N)N)NC(=O)[C@H](CC(=O)O)NC(=O)[C@H](CC(C)C)NC(=O)[C@H](CCCCN)NC(=O)[C@H](CC(C)C)NC(=O)CNC(=O)[C@H](Cc2ccccc2)NC(=O)[C@@H](NC(=O)CNC(=O)[C@H](CCCNC(=N)N)NC(=O)[C@H](CO)NC(=O)[C@H](CC(C)C)NC(=O)CN)CSSC[C@@H](C(=O)O)NC(=O)CNC(=O)[C@H](CC(C)C)NC(=O)CNC(=O)[C@H](CO)NC(=O)[C@H](CCSC)NC(=O)[C@H](CO)NC(=O)[C@H](CC(N)=O)NC1=O [Analog BJ, CNP22, K4R, G15N] (H-GLSRGCFGLKLDRINSMSGLGC-OH; disulfide 6-22; N-terminus and C-terminus assumed) | 4 | 41 | greatest resistance to NEP cleavage |  |  |  |  |  | 
7 | CC[C@@H](C)[C@H]1NC(=O)[C@@H](CCCNC(=N)N)NC(=O)[C@@H](CC(=O)O)NC(=O)[C@@H](CC(C)C)NC(=O)[C@@H](CCCCN)NC(=O)[C@@H](CC(C)C)NC(=O)CNC(=O)[C@@H](Cc2ccccc2)NC(=O)[C@H](NC(=O)CNC(=O)[C@@H](CCCCN)NC(=O)[C@@H](CO)NC(=O)[C@@H](CC(C)C)NC(=O)CN)CSSC[C@H](C(=O)O)NC(=O)CNC(=O)[C@@H](CC(C)C)NC(=O)CNC(=O)[C@@H](CO)NC(=O)[C@@H](CCSC)NC(=O)[C@@H](CO)NC(=O)CNC1=O [Analog N, D-CNP22 (all D-amino acids)] | 2 | 1 |  | >>160 min |  |  |  |  | greatest resistance to NEP cleavage
8 | CC[C@H](C)[C@@H]1NC(=O)[C@H](CCCNC(=N)N)NC(=O)[C@H](CC(=O)O)NC(=O)[C@H](CC(C)C)N(C)C(=O)[C@H](CCCCN)NC(=O)[C@H](CC(C)C)N(C)C(=O)CNC(=O)[C@H](Cc2ccccc2)NC(=O)[C@@H](NC(=O)CNC(=O)[C@H](CCCCN)NC(=O)[C@H](CO)NC(=O)[C@H](CC(C)C)NC(=O)CN)CSSC[C@@H](C(=O)O)NC(=O)CNC(=O)[C@H](CC(C)C)NC(=O)CNC(=O)[C@H](CO)NC(=O)[C@H](CCSC)NC(=O)[C@H](CO)NC(=O)CNC1=O [Analog M, CNP22, N-methyl-L9, N-methyl-L11] | 1 | 11 | greatest resistance to NEP cleavage | >>160 min |  |  |  |  | 
